How the values were obtained:
[1] = Stability in air of reduced BTMAPAQ isomers (with and without captured CO2) tracked by 1H NMR
[2] = Cyclic voltammetry of the water-soluble redox molecules; settings: for redox peak separation: 0.1 M in 1 M TBABr
Text: Cyclic voltammetry was used to examine the electrochemical behaviors of the water-soluble redox molecules in the presence/absence of CO2.

[3] = Stability in air of 2,7-BTMAPFL-OH stirred in air for 12 hours, 1H NMR; format: physicochemical; settings: vigorously stirred in air 12 hours
Experimental: We vigorously stirred the solution in air for 12 hours, then checked its ^1H NMR spectra before and after being stirred in air.
The 2,7-BTMAPFL molecule undergoes PCET process and forms 2,7-BTMAPFL-OH after the electrochemical reduction; meanwhile, the electrolyte pH swings from near neutral (˜7) to ˜14. Therefore, we also investigated the air stability of 2,7-BTMAPFL-OH at pH 14 by vigorously stirring the pH 14 solution in air for 12 hours.

[4] = pH >6; cited from earlier work
[5] = Reduction potentials stated for choice of chemical reductant; settings: pH=7
[6] = with captured CO2, D2O, 1 M KCl
[7] = with captured CO2, D2O, 1 M KCl, air exposure
[8] = with captured CO2, D2O, 1 M KCl, air exposure, day-4
[9] = with captured CO2, D2O, 1 M KCl, air exposure, day-6
[10] = without captured CO2, D2O, 1 M KCl
[11] = without captured CO2, D2O, 1 M KCl, air exposure
[12] = without captured CO2, D2O, 1 M KCl, air exposure, day-3

Compound: C[N+](C)(C)CCCOc1ccc(OCCC[N+](C)(C)C)c2c1C(=O)c1ccccc1C2=O [1,4-BTMAPAQ]
- oxidation by air of the reduced species [1, 6]: relatively slow
- day on which peaks of oxidized state start to appear [1, 7]: 2 days
- reduced form with captured CO2 converted to the oxidized form ([1]; with captured CO2, D2O, 1 M KCl, air exposure, day-3): 51.5%
- reduced form with captured CO2 converted to the oxidized form [1, 8]: 73.0%
- reduced form with captured CO2 converted to the oxidized form [1, 9]: 98.0%
- oxidation by air of the reduced species [1, 10]: very slow
- day on which peaks of oxidized state start to appear [1, 11]: 3 days
- reduced form converted to the oxidized form [1, 12]: 11.3%
- reduced form converted to the oxidized form ([1]; without captured CO2, D2O, 1 M KCl, air exposure, day-4): 27.6%
- reduced form converted to the oxidized form ([1]; without captured CO2, D2O, 1 M KCl, air exposure, day-6): 50%

Compound: C[N+](C)(C)CCCOc1cccc2c1C(=O)c1cccc(OCCC[N+](C)(C)C)c1C2=O [1,5-BTMAPAQ]
- oxidation by air of the reduced species [1, 6]: very slow
- day on which peaks of oxidized state start to appear [1, 7]: 4 days
- reduced form with captured CO2 converted to the oxidized form [1, 8]: 15.0%
- reduced form with captured CO2 converted to the oxidized form [1, 9]: 22.3%
- oxidation by air of the reduced species [1, 10]: very slow
- air stability (1H NMR spectra unchanged) [1, 11]: good air stability over the first day
- day on which peaks of oxidized state start to appear [1, 11]: 2 days
- reduced form converted to the oxidized form [1, 12]: 37.0%
- reduced form converted to the oxidized form ([1]; without captured CO2, D2O, 1 M KCl, air exposure, day-5): 47.4%
- reduced form converted to the oxidized form ([1]; without captured CO2, D2O, 1 M KCl, loosely capped, air exposure, day-2): 23.6%

Compound: C[N+](C)(C)CCCOc1cccc2c1C(=O)c1c(OCCC[N+](C)(C)C)cccc1C2=O [1,8-BTMAPAQ]
- time the reduced species with captured CO2 can withstand the presence of air ([1]; with captured CO2, 1 M TBABr): 5 days
- oxidation by air of the reduced species ([1]; with captured CO2, D2O, 1 M TBABr): extremely slow
- day on which peaks of oxidized state appear ([1]; with captured CO2, D2O, 1 M TBABr, air exposure day 1 to day 9): 9 days
- redox peak separation ([2]; absence of CO2, scan rate 100 mV/s): 100 mV
- redox peak separation ([2]; in the presence of CO2, scan rate 100 mV/s): 200 mV

Compound: C[N+](C)(C)CCCOc1ccc2c(c1)C(O)c1cc(OCCC[N+](C)(C)C)ccc1-2 [2,7-BTMAPFL-OH]
- air stability (1H NMR spectra unchanged) ([3]; D2O, 1 M KCl, pH 7): excellent air stability over 12 hours
- air stability (1H NMR spectra almost unchanged) ([3]; pH 14): excellent air stability over 12 hours

Compound: C[N+](C)(C)CCCOc1ccc2c(c1)C(=O)c1cc(OCCC[N+](C)(C)C)ccc1-2 [2,7-BTMAPFL]
- cyclic voltammetry peaks observed ([2]; 0.1 M in 1 M KCl at pH 7, scan rate 100 mV/s): a reduction peak but no oxidation peak
- potential of the pair of redox peaks ([2]; 0.1 M in 1 M KOH at pH 14, scan rate 100 mV/s): −0.67 V vs. Ag/AgCl
- electrochemical reversibility ([2]; pH 7): poor reversibility
- electrochemical reversibility ([2]; pH 14): good reversibility

Compound: O=NO [NO2, nitrite]
- air-stability [4]: superior air-stability

Compound: O=S([O-])S(=O)[O-].[Na+].[Na+] [Na2S2O4, sodium dithionite, reference compound]
- reduction potential [5]: −0.66 V vs. SHE

Compound: bis-(trimethylammonio)propyl anthraquinone [BTMAPAQ]
- reduction potential [5]: −0.41 V vs. SHE
